The results in this text go back to ChEMBL document CHEMBL1201862, “PubChem BioAssay data set” (2004).

Among the test systems are CAKI-1; SF-295; HOP-62; T47D; OVCAR-4; OVCAR-5; HCT-15; SNB-75; 786-0; HT-29; CCRF-CEM; U-251; NCI-H522; K562; NCI-H460; IGROV-1; SR; MDA-MB-435; HCT-116; EKVX.
Common to all, as to assay: growth of human tumour cells (NCI), 48 h

Structures are written as SMILES.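 How tested: cells in 96-well plates exposed to compound for 48 hours at five concentrations. GI50: concentration for 50% inhibition of growth.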 The source made the active and inactive calls. Cut-off read from the data, not from the text of the source: active = GI50 up to about 1.1 µM and inactive = higher.

For `CN(C)c1nc(N)nc(CCl)n1`, the GI50 is 5.14 µM (inactive) in the experiment with CAKI-1; 30.8 µM (inactive) with SF-295; 17.5 µM (inactive) in the experiment with HOP-62; 60.4 µM (inactive) in the experiment on T47D; 19.6 µM (inactive) in the experiment on OVCAR-4; 65.9 µM (inactive) with OVCAR-5. The GI50 with HCT-15 is 29.4 µM; in the experiment on SNB-75, 0.912 µM (active); in the experiment with 786-0, 22.3 µM (inactive); with HT-29 it was 41.1 µM (inactive); with CCRF-CEM, 17.4 µM (inactive); with U-251, 35.2 µM (inactive). Further, the GI50 with NCI-H522 was 10.9 µM (inactive); in the experiment with K562, 29 µM (inactive); in the experiment on NCI-H460, 32.7 µM (inactive); with IGROV-1, 13.4 µM (inactive); with SR, 24.9 µM (inactive); in the experiment on MDA-MB-435 it was 37.1 µM (inactive). Moreover, the GI50 in the experiment on HCT-116 was 54.8 µM (inactive); with EKVX it was 18.3 µM (inactive).
Turning to `CCc1nc(N)nc(N)c1-c1ccc(Cc2ccccc2)c([N+](=O)[O-])c1`, the GI50 in the experiment with CAKI-1 is 0.0183 µM (active); in the experiment with SF-295, 0.0116 µM (active); in the experiment with HOP-62 it was 0.173 µM (active); in the experiment on T47D, 6.95 µM (inactive); in the experiment on OVCAR-4, 16.6 µM (inactive); in the experiment on OVCAR-5 it was > 55 µM (inactive). In addition, the GI50 is less than 0.01 µM with HCT-15; 23.3 µM (inactive) with SNB-75; < 0.01 µM (active) in the experiment with 786-0; < 0.01 µM (active) in the experiment on HT-29; < 0.01 µM (active) in the experiment on CCRF-CEM; < 0.0178 µM (active) in the experiment with U-251. In addition, the GI50 in the experiment on NCI-H522 is 0.16 µM (active); in the experiment on K562, < 0.01 µM (active); with NCI-H460, < 0.01 µM (active); with IGROV-1 it was 0.0702 µM (active); in the experiment on SR it was < 0.01 µM (active); in the experiment with MDA-MB-435, < 0.01 µM (active). For the same compound, the GI50 in the experiment with HCT-116 is < 0.01 µM (active); in the experiment on EKVX, 5.53 µM (inactive).
Take `Cc1nc2c(=O)[nH]c(=O)nc-2n(CCO)c1C`: the GI50 in the experiment on CAKI-1, in the experiment on SF-295, in the experiment with HOP-62, in the experiment with T47D, in the experiment on OVCAR-4 and in the experiment with OVCAR-5 was > 100 µM (inactive) each time. Moreover, the GI50 in the experiment on HCT-15 was more than 100 µM; in the experiment on SNB-75, 82 µM (inactive); in the experiment with 786-0, > 100 µM (inactive); with HT-29 it was > 100 µM (inactive); with CCRF-CEM, > 100 µM (inactive); in the experiment with U-251, > 100 µM (inactive). Besides, the GI50 in the experiment with NCI-H522, with K562, in the experiment on NCI-H460, in the experiment with IGROV-1, in the experiment with SR and with MDA-MB-435 was > 100 µM (inactive) throughout. Also, the GI50 in the experiment with HCT-116 and with EKVX was > 100 µM (inactive) each time.
Turning to `O=C(NCCCCCCNC(=O)n1cc(F)c(=O)[nH]c1=O)NCCCOCCOCCOCCOCCOCCOCCOCCOCCOCCOCCOCCOCCOCCOCCOCCOCCOCCOCCOCCOCCOCCCNC(=O)C(O)C(O)C(O)C(O)CO` (stereo not given), the GI50 was 22.5 µM (inactive) with CAKI-1; 48.9 µM (inactive) in the experiment on SF-295; 33.5 µM (inactive) in the experiment on HOP-62; > 100 µM (inactive) with T47D; > 100 µM (inactive) in the experiment on OVCAR-4; > 96.4 µM (inactive) with OVCAR-5. Besides, the GI50 is 21 µM with HCT-15; 73.1 µM (inactive) in the experiment with SNB-75; 26.6 µM (inactive) with 786-0; 17.5 µM (inactive) with HT-29; 43.9 µM (inactive) in the experiment with CCRF-CEM; 70.6 µM (inactive) with U-251. In addition, the GI50 in the experiment with NCI-H522 was > 90.2 µM (inactive); in the experiment on K562, 34.8 µM (inactive); with NCI-H460 it was 5.37 µM (inactive); in the experiment on IGROV-1 it was 60.1 µM (inactive); with SR it was 65.9 µM (inactive); in the experiment on MDA-MB-435 it was 55.1 µM (inactive). In addition, the values for the GI50 in the experiment with HCT-116 and in the experiment on EKVX were 9.57 µM (inactive) and 85.9 µM (inactive), respectively.
As for `COC(=O)c1cc2c(cc1Cl)Sc1nnc(Nc3ccccc3)n1S2(=O)=O`, the GI50 with CAKI-1 was 2.42 µM (inactive); in the experiment on SF-295, 3.78 µM (inactive); in the experiment with HOP-62, 2.15 µM (inactive); with T47D, 1.59 µM (inactive); with OVCAR-4 it was 3.37 µM (inactive); in the experiment on OVCAR-5 it was 7.93 µM (inactive). Further, the GI50 was 2.34 µM in the experiment with HCT-15; 5.12 µM (inactive) in the experiment with SNB-75; 4.18 µM (inactive) in the experiment with 786-0; 2.4 µM (inactive) in the experiment with HT-29; 2.3 µM (inactive) in the experiment on CCRF-CEM; 2.76 µM (inactive) with U-251. Besides, the GI50 in the experiment on NCI-H522 is 1.68 µM (inactive); in the experiment on K562 it was 3.41 µM (inactive); with NCI-H460 it was 10 µM (inactive); with IGROV-1, 0.351 µM (active); in the experiment on SR it was 2.74 µM (inactive); in the experiment with MDA-MB-435, 7.48 µM (inactive). The figures for the GI50 in the experiment on HCT-116 and in the experiment on EKVX were 3.61 µM (inactive) and 7.1 µM (inactive), respectively.
Regarding `O=C(O)CN1CCN2CCOCCOCCN(CC1)CCN(CC(=O)O)CC2`, the GI50 with CAKI-1, in the experiment with SF-295, with HOP-62, with T47D, with OVCAR-4 and in the experiment on OVCAR-5 was > 100 µM (inactive) each time. The GI50 in the experiment on HCT-15 is more than 100 µM; in the experiment on SNB-75, > 100 µM (inactive); in the experiment on 786-0, > 100 µM (inactive); with HT-29 it was > 100 µM (inactive); with CCRF-CEM, > 100 µM (inactive); in the experiment with U-251, > 100 µM (inactive). The GI50 in the experiment on NCI-H522, with K562, in the experiment with NCI-H460, with IGROV-1, in the experiment with SR and in the experiment with MDA-MB-435 was > 100 µM (inactive) each time. For the same compound, the GI50 in the experiment on HCT-116 and with EKVX was > 100 µM (inactive) each time.
For `CCCC(=O)Nc1cc(/C=C/C(=O)N2CC(CCl)c3c2cc(O)c2[nH]cc(C)c32)n(C)c1` (stereo not given), the GI50 with CAKI-1, in the experiment with SF-295, in the experiment on HOP-62, with T47D, in the experiment on OVCAR-4 and with OVCAR-5 was < 2.5e-05 µM (active) each time. The GI50 is 0.000117 µM in the experiment on HCT-15; < 2.5e-05 µM (active) in the experiment on SNB-75; < 2.5e-05 µM (active) in the experiment with 786-0; < 2.5e-05 µM (active) in the experiment with HT-29; < 2.5e-05 µM (active) in the experiment with CCRF-CEM; < 2.5e-05 µM (active) in the experiment on U-251. Also, the GI50 with NCI-H522 was < 2.5e-05 µM (active); in the experiment with K562, 3.79e-05 µM (active); in the experiment with NCI-H460, < 2.5e-05 µM (active); in the experiment on IGROV-1, < 2.5e-05 µM (active); with SR it was < 2.5e-05 µM (active); in the experiment on MDA-MB-435, < 2.5e-05 µM (active). The GI50 in the experiment with HCT-116 and in the experiment on EKVX was < 2.5e-05 µM (active) throughout.
Turning to `Clc1ccc(CCNC2(c3cc4ccccc4s3)CCCCC2)cc1Cl`, the GI50 with CAKI-1 was 29.5 µM (inactive); in the experiment with SF-295, 28.7 µM (inactive); with HOP-62, 28.2 µM (inactive); with T47D it was 20.2 µM (inactive); in the experiment on OVCAR-4, 33.3 µM (inactive); in the experiment with OVCAR-5, 19.5 µM (inactive). For the same compound, the GI50 in the experiment on HCT-15 was 15.3 µM; with SNB-75, 14.2 µM (inactive); in the experiment with 786-0 it was 18.1 µM (inactive); in the experiment with HT-29, 10 µM (inactive); with CCRF-CEM, 12.9 µM (inactive); in the experiment with U-251, 23.9 µM (inactive). Further, the GI50 in the experiment on NCI-H522 was 17.5 µM (inactive); with K562 it was 15.5 µM (inactive); in the experiment on NCI-H460, 14.8 µM (inactive); with IGROV-1 it was 40.8 µM (inactive); with SR, 11.9 µM (inactive); in the experiment with MDA-MB-435, 41.4 µM (inactive). In addition, the GI50 is 12.4 µM (inactive) in the experiment on HCT-116 and 26.1 µM (inactive) in the experiment on EKVX.
`COc1ccc(/N=C/C=C/Nc2ccc(OC)cc2)cc1`: the GI50 in the experiment on CAKI-1 was 3.78 µM (inactive); in the experiment on SF-295 it was 7.98 µM (inactive); in the experiment with HOP-62, 5.78 µM (inactive); with T47D, 15 µM (inactive); with OVCAR-4, 5.24 µM (inactive); with OVCAR-5, 15.5 µM (inactive). Also, the GI50 in the experiment with HCT-15 is 4.65 µM; with SNB-75, 16.9 µM (inactive); in the experiment with 786-0 it was 4 µM (inactive); with HT-29, 2.88 µM (inactive); in the experiment on CCRF-CEM, 6.28 µM (inactive); with U-251, 5.35 µM (inactive). The GI50 with NCI-H522 is 5.42 µM (inactive); in the experiment on K562, 8.13 µM (inactive); in the experiment with NCI-H460, 13.3 µM (inactive); in the experiment with IGROV-1 it was 11.6 µM (inactive); in the experiment on SR, 3.85 µM (inactive); with MDA-MB-435, 9.27 µM (inactive). In addition, the GI50 with HCT-116 is 3.66 µM (inactive); in the experiment on EKVX, 15.7 µM (inactive).
For `O=C(O)c1ccc(CI)cc1`, the GI50 in the experiment on CAKI-1 was 13.7 µM (inactive); in the experiment with SF-295 it was 7.82 µM (inactive); in the experiment with HOP-62, 20.3 µM (inactive); with T47D, 25 µM (inactive); in the experiment on OVCAR-4, 14.3 µM (inactive); in the experiment on OVCAR-5 it was 18.7 µM (inactive). Further, the GI50 in the experiment with HCT-15 was 16 µM; in the experiment on SNB-75, 33.2 µM (inactive); in the experiment on 786-0, 3.24 µM (inactive); in the experiment with HT-29, 15.1 µM (inactive); in the experiment with CCRF-CEM, 9.57 µM (inactive); in the experiment with U-251 it was 7.85 µM (inactive). The GI50 in the experiment with NCI-H522 was 3.9 µM (inactive); in the experiment with K562, 23.7 µM (inactive); with NCI-H460, 15.6 µM (inactive); in the experiment on IGROV-1, 21.1 µM (inactive); with SR, 21.6 µM (inactive); with MDA-MB-435 it was 17.4 µM (inactive). Also, the GI50 with HCT-116 is 14.5 µM (inactive); in the experiment on EKVX it was 19.5 µM (inactive).
